Laboratory results reported in patent publication US12268727B2, “Bioactive polypeptides for improvements in plant protection, growth and productivity” (priority 2017, dated 2025).
Non-standard residues stand in square brackets, D forms with d. No end group written: not given here. sY = N[C@@H](Cc1ccc(OS(=O)(=O)O)cc1)C(=O)O

What was measured:
corn [1] = format: in vivo
corn [2] = test: Foliar application to corn in growth room, plant height (non-stress, heat and water deficit stress)
soybean [3] = test: Foliar application to soybean in growth room, plant height (non-stress, heat and water deficit stress); format: in vivo
Description: Ec.Flg22 (SEQ ID NO: 527) was applied to soybean (Beck's 297NR).
Plant height (cm) was measured just prior to the foliar application delivered at 3 weeks and then again 2 weeks later when the plants were 5-weeks-old. Two replicate trials were conducted using 18 plants per trial.
Soybean plants were grown as described in Example 6. The At.PSKα polypeptide (SEQ ID NO: 598) was applied as a foliar spray to the plants at the V1-V4 stage. Soybean plants treated with foliar applications of At.PSKα and control plants treated with water and surfactant alone were then grown in conditions described in Examples 7-9 that produced a non-stress and stress (heat and water deficit) environments. Table 37 describes the percentage change or increase in height reported for soybean plants treated with At.PSKα as a foliar spray at the V1-V4 growth stage.
RHPP bioactive priming polypeptide (SEQ ID NO: 600) was also applied as foliar treatment to R1 stage hybrid soybean (Beck's 297R4) with 0.1% (v/v) non-ionic surfactant ([…] SURFACE) using a spray bottle delivering approximately 1.2 ml/plant. This experiment was performed to look at the effects of RHPP on plant growth and was conducted using a total of 18 plants per treatment group. […] R1 stage soybean plants were treated with nothing (non-treated control), […] SURFACE surfactant applied at a concentration of 0.1% (v/v) or the RHPP polypeptide (300 nM) applied in combination with […] SURFACE surfactant (0.1% v/v). Height for each plant was recorded at the time of spray and again at 16 days post foliar application and average growth parameters were compared between foliar treatments (Table 39).

soybean [4] = test: Foliar application to soybean, field yield trials; format: in vivo; conditions: for Average Bu/Ac Increase compared to Control Variety 1 and 2 / Average Total Yield Bu/Ac Variety 1 and 2 / Average Total Yield Bu/Ac Variety 2: foliar at R2, 7 US Midwest locations; for Average Total Yield Bu/Ac Variety 2: AG3536
[5] = system: Pseudomonas syringae pv. actinidiae (PSA-V); test: PSA-V leaf spot in potted kiwi plants; format: in vivo
[6] = system: reactive oxygen species (ROS) production in corn tissue; test: ROS activity assay in corn tissue (luminol/horseradish peroxidase, RLU); conditions: Table 33; 5 nM polypeptide; RLU relative to native Bt.4Q7Flg22 = 100
[7] = system: reactive oxygen species (ROS) production in soybean leaf tissue; test: ROS activity assay in soybean leaf tissue (luminol/horseradish peroxidase, RLU); format: cell-based; conditions: Table 33; 100 nM polypeptide; RLU relative to native Bt.4Q7Flg22 = 100
[8] = system: reactive oxygen species (ROS) production in Kiwi 'Hayward' leaf petioles; test: ROS activity assay in kiwi leaf petioles; format: cell-based, Actinidiae deliciosa; conditions: 100 nM peptide
Description: To test the sensitivity of kiwi leaves to 22-amino acid fragments of flagellin, 1 mm slices were cut through Actinidiae deliciosa Kiwi ‘Hayward’ leaf petioles and floated in 150 μL of water in a 96-well plate, with one slice per well. […] In two independent experiments, a total of 6 kiwi leaf petiole samples were treated with each Flg22 polypeptide in Table 94. The average total RLU and standard error of the means (SEM) was calculated for each treatment. A two-tailed T-test was used to determine significance at the 90% confidence level (P<0.1) between treatments. Relative ROS production was determined for each polypeptide in comparison to total RLUs for the 100 nM Bt.4Q7Flg22 control.

[9] = system: Agrobacterium tumefaciens strain GV3101; test: Growth of Agrobacterium tumefaciens culture (OD 600); format: cell-based; conditions: 10.0%, 2.0%, 0.40%, 0.08%, 0.02%
Description: Agrobacterium tumefaciens strain GV3101 was inoculated into Luria broth medium (LB) and grown for 20 hours. Initially the optical density (OD) of the culture was measured at a wavelength of 600 nm using a spectrophotometer and normalized to a low starting density. The cultures were then divided equally and treated with similar proportions of thionins that are representative of mixtures used to treat citrus trees. The ratios of Cs.thionin (SEQ ID NO: 651), As.thionin (SEQ ID NO: 652) and Mt.thionin (SEQ ID NO: 653) used were 10.0%, 2.0%, 0.40%, 0.08%, and 0.02% and were prepared to match the 20 mL total volume of filtrate of each of the thionin mixtures that is used as a treatment per tree. Each thionin mixture was also compared to control mixtures containing only: filtrate, minimal media (LB), or a tetracycline (Tet) antibiotic (10 μg/mL per culture). Each bar represents a combined OD measure of 3 replicates. After incubation with the thionin and antibiotic mixtures, the optical density (OD 600) was measured again to determine if growth of the Agrobacterium cultures was reduced or inhibited.

[10] = system: Candidatus Liberibacter asiaticus; conditions: in vivo
soybean [11] = test: Foliar application to soybean, field yield trials; format: in vivo; conditions: foliar at R2, AG2836, 7 US Midwest locations

Tyr(SO3H)-I-Tyr(SO3H)-TQ ([sY]I[sY]TQ; listed as Arabidopsis thaliana) [At.PSKα, Phytosulfokine alpha, Arabidopsis thaliana]
Bu/Ac Foliar Corn (yield increase) (corn [1]; 1 μM foliar spray with surfactant at V5-V8, corn hybrid 5140RR, vs water control): 3.0 Bu/Ac | yield increase (corn [1]; foliar 1 μM, V5-V8, hybrid 5140RR, one location): 3 Bu/Ac | Plant Height Normalized as a percentage of control height Non-stress (corn [2]; 5 weeks, control surfactant 0.01% v/v, HpaG-like 1 μM, At.PSKα 100 nM): 98.2% | Plant Height Normalized as a percentage of control height Stress (corn [2]; 5 weeks, heat and water deficit stress, control surfactant 0.01% v/v, HpaG-like 1 μM, At.PSKα 100 nM): 107.8% | growth phenotype vs control (corn [2]; foliar (HpaG-like 1 μM, PSKα), heat and water deficit stress): improved growth phenotype | Height (cm) after stress 5 weeks (corn [2]; heat and water deficit stress, HpaG-like 1 μM, At.PSKα 100 nM foliar): 54.88 cm | Height (cm) after non-stress 5 weeks (corn [2]; non-stress growth room, HpaG-like 1 μM, At.PSKα 100 nM foliar): 58.62 cm | increase in height vs control (soybean [3]; foliar at V1-V4, non-stress environment): 3.5% | increase in height vs control (soybean [3]; foliar at V1-V4, stress (heat and water deficit) environment): 4.3% | Percentage (%) change in Height in Stress Environment Soybean with At.PSKα over control (soybean [3]; foliar spray at V1-V4, heat and water deficit stress): 4.3% | Percentage (%) change in Height in Non-Stress Environment Soybean with At.PSKα over control (soybean [3]; foliar spray at V1-V4, non-stress): 3.5% | Bu/Ac Foliar Soybean (yield increase) (soybean [4]; 1 μM foliar spray with surfactant at V1-V4, soybean hybrid 375 NR, vs water control): 0.8 Bu/Ac | yield increase (soybean [4]; foliar 1 μM, V1-V4, hybrid 375 NR, one location): 0.8 Bu/Ac

TRLSSGLKINSAKDDAAGLQIA (listed as Pseudomonas syringae) [Flg22-PSA, Flg22 from Pseudomonas syringae pv. actinidiae]
PSA-V leaf spot symptoms vs untreated control ([5]; 6, 16 and 23 DAI): significantly reduced PSA-V leaf spot symptoms | less leaf spot compared to untreated control ([5]; combination with Flg22-PSA pre-treatment (partner not given), 29 DAI): 14.3% | Avg. Activity (%) Corn (5828 YX) 5 nM polypeptide [6]: 154.4% | Avg. Activity (%) Soybean (297 R4) 100 nM polypeptide [7]: 113.1% | Average Total Relative Light Units (RLUs); SEM in parentheses ([8]; Kiwi 'Hayward' leaf petiole slices, 40 minutes time course): 124,550 RLU | ROS production relative to Bt4Q7Flg22 (%) ([8]; Kiwi 'Hayward' leaf petioles): 262%

Cs.thionin: thionin polypeptide, applied as filtrate (RVCQSQSHHFHGACFSHHNCAFVCRNEGFSGGKCRGVRRRCFCSKLC; applied as filtrate; listed as Citrus sinensis)
growth of Agrobacterium cultures vs filtrate, LB or Tet controls [9]: dose dependent response and decreased growth

Mt.thionin: thionin polypeptide, applied as filtrate (RTCESQSHRFKGPCSRDSNCATVCLTEGFSGGDCRGFRRRCRCTRPCVFDEK; applied as filtrate)
growth of Agrobacterium cultures vs filtrate, LB or Tet controls [9]: dose dependent response and decreased growth

thionin tagged: thionin polypeptide comprising a phloem localization sequence (printed SEQ ID NO: 650) (RTCESQSHRFKGPCSRDSNCATVCLTEGFSGGDCRGFRRRCRCTRPCVFDEK)
Ct values vs control trees [10]: higher average Ct values | average Ct value vs un-tagged thionin [10]: higher average Ct value at T56

Gm RHPP (GGIRAAPTGNER; Glycine max)
Average Total Yield Bu/Ac Variety 1 (soybean [11]; use rate 4.0 Fl. oz/Ac): 58.61 Bu/Ac | Average Total Yield Bu/Ac Variety 1 (soybean [11]; use rate 8.0 Fl. oz/Ac): 59.47 Bu/Ac | Average Bu/Ac Increase compared to Control Variety 1 and 2 (soybean [4]; use rate 4.0 Fl. oz/Ac): +1.26 Bu/Ac | Average Total Yield Bu/Ac Variety 1 and 2 (soybean [4]; use rate 4.0 Fl. oz/Ac): 61.83 Bu/Ac | Average Bu/Ac Increase compared to Control Variety 1 and 2 (soybean [4]; use rate 8.0 Fl. oz/Ac): +0.51 Bu/Ac | Average Total Yield Bu/Ac Variety 1 and 2 (soybean [4]; use rate 8.0 Fl. oz/Ac): 61.08 Bu/Ac | Average Total Yield Bu/Ac Variety 2 (soybean [4]; use rate 4.0 Fl. oz/Ac): 66.35 Bu/Ac | Average Total Yield Bu/Ac Variety 2 (soybean [4]; use rate 8.0 Fl. oz/Ac): 62.46 Bu/Ac
